The subject of series [1] is carbachol-induced contraction in guinea-pigs trachea. The experiment in a line: Carbachol-induced contraction in guinea-pig trachea strips, relaxation, isobolographic analysis. It counts as cell-based. Particulars: Cavia porcellus, read-out: ED50, relaxation of carbachol-induced contraction. As for the experimental part:
Male guinea-pigs (380-420 g) are used. The investigation conforms to the Guide for the Care and Use of Laboratory Animals published by the US National Institutes of Health (NIH Publication No. 85-23, revised 1996).
The trachea is removed, cleaned and cut into two zig-zag strips, according to Emmerson et al. (J. Pharm. Pharmacol., 1979; 31:798). A sub-maximal concentration of carbachol (3×10^−7 M) is then added to the organ bath and when stable contraction is reached, a cumulative concentration-response curve (from 1×10^−11 to 1×10^−7 M) to carmoterol or compound 1′ is generated (n=12 for each compound). Maximal relaxation is tested by adding a maximal dose of isoproterenol (3×10^−7 M) at the end of the curve. Data are expressed as percentages of the isoproterenol-induced maximal relaxation. Isobolographic analysis is used to characterize the pharmacological interaction between carmoterol and compound 1′.
To estimate the experimental ED50MIX, the dose-effect curve resulting from this second set of experiments (Table 1) is fitted with a mixed logistic model. All computations are carried out resorting to NLMIXED procedure (SAS/STAT® User's Guide, version 9, 2004. SAS Institute Inc., Cary, N.C.).

A short description of series [2]: Bronchodilation activity: Ach-induced increase in Penh, barometric plethysmography after nebulisation. Type of series: in vivo, guinea pigs. Particulars: male, guinea pig, lung, inhaled; nebulisation with submaximal bronchodilator activity, 2 hours after treatment; read-out: retained dose in the target organ (lung levels). As for the experimental part:
(§1) Airway reactivity is measured using barometric plethysmography (Buxco, USA). Male guinea pigs (500-600 g) are individually placed in plexiglass chambers. After an acclimatisation period, animals are exposed to nebulised saline for 1 minute to obtain airway baseline reading. This is followed by a 1 minute challenge with nebulised acetylcholine (Ach)-2.5 mg/mL.
(§2) After 60 minutes, 5 minutes nebulisation of vehicle or the compound 1′ in the range 2.5-250 μM are applied and Ach challenge is then repeated after 2, 5, 24, 48, and 72 hours (h). Recording of pressure fluctuations in the chambers are taken for 5 minutes after each nebulisation and analysed to calculate Enhanced Pause (Penh). Airway reactivity is expressed as percentage increase in Penh compared with Penh values from the nebulisation of vehicle.

The subject of series [3] is acetylcholine (Ach) challenge, airway reactivity. Described as above. It counts as in vivo, guinea pigs. As to conditions: for bronchoprotective effect: twenty-four hours. As for the experimental part:
as §1, §2

Another series deals with T1, M2 muscarinic receptors (Homo sapiens, UniProt P08172).
T1 sequence (P08172 1-466): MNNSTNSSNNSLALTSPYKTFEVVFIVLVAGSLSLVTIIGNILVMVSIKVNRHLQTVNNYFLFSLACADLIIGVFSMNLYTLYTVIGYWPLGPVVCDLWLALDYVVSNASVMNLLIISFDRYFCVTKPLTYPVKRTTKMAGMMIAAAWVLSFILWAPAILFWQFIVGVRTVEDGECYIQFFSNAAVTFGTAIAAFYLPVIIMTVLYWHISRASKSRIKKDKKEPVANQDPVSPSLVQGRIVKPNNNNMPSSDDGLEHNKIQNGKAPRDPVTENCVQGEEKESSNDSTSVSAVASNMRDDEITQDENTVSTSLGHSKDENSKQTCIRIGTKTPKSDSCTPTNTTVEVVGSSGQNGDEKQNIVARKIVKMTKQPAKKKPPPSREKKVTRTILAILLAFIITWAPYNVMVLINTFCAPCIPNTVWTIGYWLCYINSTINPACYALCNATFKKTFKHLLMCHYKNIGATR
The experiment in a line: Dissociation / duration of action on M2 receptors. As to conditions: compared with tiotropium bromide. Type of series: binding.

The subject of another series is muscarinic receptors. Briefly: Receptor potency and duration of action compared with tiotropium bromide.

Each structure is given as a SMILES string. Structures can show the parent of a compound that is named as a salt. Where two headings read alike, the source gives them in different places.

Turning to `COc1ccc(C[C@@H](C)NC[C@H](O)c2ccc(O)c3[nH]c(=O)ccc23)cc1` [carmoterol, reference compound], in series [1] (carbachol 3×10^−7 M, % of isoproterenol-induced maximal relaxation, n=12), the EC50 stood at 540 pM.

Regarding `O=C(C[N+]12CCC(CC1)C(OC(=O)N(Cc1cc(F)c(F)c(F)c1)c1cccc(F)c1)C2)c1cccs1` (stereo not shown) [compound 1′, 3-[[[(3-fluorophenyl)[(3,4,5-trifluorophenyl)methyl]amino]carbonyl]oxy]-1-[2-oxo-2-(2-thienyl)ethyl]-1-azoniabicyclo [2.2.2]octane], the concentration at 2 h in series [2] was about 50 ng/g. Also, the bronchoprotective effect is recorded as 63.7±15.1% in series [3] (25 μM inhalation) and 87.1±8.7% in series [3] (50 μM inhalation). In series [3] (50 μM inhalation, 48 hours), the “inhibition of Ach-induced increase in Penh” value amounted to 49.2±23.2%. The “maximal effect, inhibition of Ach-induced increase in Penh” value in series [3] (50 μM nebulised, two hours after end of nebulisation) is 99.6±0.4. Besides, the “inhibition of Ach-induced increase in Penh (effect)” value in series [3] (250 μM inhalation, 48 hours) is reported as 83.0±16.1%. Besides, in series [3] (250 μM inhalation, 72 hours), the “residual activity, inhibition of Ach-induced increase in Penh” value turned out to be 34.8±20.9%. This molecule also registered a duration of effect in series [3] (inhalation of lower concentrations (below 25 μM)) of at most 5 h. For the same molecule, the EC50 in series [1] came to 930 pM.

Consider `O=C(C[N+]12CCC(CC1)C(OC(=O)N(Cc1cc(F)c(F)c(F)c1)c1cccc(F)c1)C2)c1cccs1` (stereo not shown) [chloride salt of active compound 1, 3-[[[(3-fluorophenyl)[(3,4,5-trifluorophenyl)methyl]amino]carbonyl]oxy]-1-[2-oxo-2-(2-thienyl)ethyl]-1-azoniabicyclo[2.2.2]octane], for which the “duration of action on the M2 receptors” value at M2 muscarinic receptors is given as “significantly short-acting”. In the series on muscarinic receptors, the duration of action result is “equieffective to tiotropium bromide” and the receptor potency entry was “equieffective to tiotropium bromide”.
